The source of these data is patent US20240336572A1, “SUBSTITUTED INDAZOLE PROPIONIC ACID DERIVATIVE COMPOUNDS AND USES THEREOF” (Pfizer Inc., priority 2023, published 2024).

Assay [1] deals with T1, AMPK 111 (Homo sapiens, UniProt Q13131+Q9Y478).
T1 construct: open reading frames encoding the full-length α1, β1 and δ1 subunits of human AMPK; made in house; host or cells: E. coli BL21-CodonPlus (DE3)-RIPL, pET-14b
The assay is described as follows: Biochemical profiling of AMPK activators by AMPK111 (HTRF/TR-FRET assay, SAMS peptide, PP2A dephosphorylation protection). Conditions: for EC50: phosphorylated AMPK 111 (α1β1δ1 as printed), 11 point dilution, duplicate, 4-parameter fit; for Emax: phosphorylated AMPK 111, maximal activation. Here is the method: (§1) The biochemical EC50 (half-maximal concentration required for full activation) of compounds for the activation of AMPK was evaluated by HTRF assay using LANCE Ultra ULight-Acetyl-CoA Carboxylase (SAMS) peptide (commercially available, Perkin Elmer catalog TRF0133-M).
Following a fifteen-minute room temperature incubation, 5 μL of 30 nM protein phosphatase PP2A (isolation detailed above) diluted in the assay buffer was added to the plate, to dephosphorylate pThr172 of AMPK. […] The reaction was terminated after 60 minutes incubation at room temperature, by the addition of 5 μL of stop and detection cocktail, which consisted of 1× Perkin Elmer Lance buffer (Perkin Elmer catalog number CR97-100), 40 mM EDTA (Thermo Fisher catalog number BP2482-100), and 2 nM Eu-anti-Acetyl CoA Carboxylase [pSer70] antibody (Perkin Elmer, TRF0208-M).

In assay [2] the target is T2, AMPK 221 (Homo sapiens, UniProt O43741+P54646).
T2 construct: open reading frames encoding the full-length α2, β2 and δ1 subunits of human AMPK; made in house; host or cells: E. coli BL21-CodonPlus (DE3)-RIPL, pET-14b
T2 sequence (P54646 whole entry): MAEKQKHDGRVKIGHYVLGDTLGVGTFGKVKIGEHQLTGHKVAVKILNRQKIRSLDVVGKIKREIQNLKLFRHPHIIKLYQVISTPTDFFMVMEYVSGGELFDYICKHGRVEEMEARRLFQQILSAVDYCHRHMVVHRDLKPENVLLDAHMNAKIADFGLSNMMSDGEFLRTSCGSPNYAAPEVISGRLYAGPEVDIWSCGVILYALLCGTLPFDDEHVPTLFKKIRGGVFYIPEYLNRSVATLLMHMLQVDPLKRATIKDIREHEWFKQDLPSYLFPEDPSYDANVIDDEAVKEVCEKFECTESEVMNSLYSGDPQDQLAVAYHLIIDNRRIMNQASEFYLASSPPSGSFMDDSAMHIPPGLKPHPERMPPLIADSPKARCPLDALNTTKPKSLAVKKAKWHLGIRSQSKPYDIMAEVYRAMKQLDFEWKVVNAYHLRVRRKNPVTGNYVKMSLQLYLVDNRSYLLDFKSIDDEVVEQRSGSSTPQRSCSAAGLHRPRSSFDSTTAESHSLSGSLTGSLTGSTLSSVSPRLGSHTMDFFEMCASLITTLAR
T2 sequence (O43741 whole entry): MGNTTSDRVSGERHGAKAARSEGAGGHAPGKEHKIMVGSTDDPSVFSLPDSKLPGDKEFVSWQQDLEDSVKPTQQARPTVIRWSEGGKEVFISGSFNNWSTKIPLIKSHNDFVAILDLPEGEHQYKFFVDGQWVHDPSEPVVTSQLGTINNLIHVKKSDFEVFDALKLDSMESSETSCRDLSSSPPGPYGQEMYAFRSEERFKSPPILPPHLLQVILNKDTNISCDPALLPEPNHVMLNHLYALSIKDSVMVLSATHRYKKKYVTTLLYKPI
T2 sequence (P54619 whole entry partner): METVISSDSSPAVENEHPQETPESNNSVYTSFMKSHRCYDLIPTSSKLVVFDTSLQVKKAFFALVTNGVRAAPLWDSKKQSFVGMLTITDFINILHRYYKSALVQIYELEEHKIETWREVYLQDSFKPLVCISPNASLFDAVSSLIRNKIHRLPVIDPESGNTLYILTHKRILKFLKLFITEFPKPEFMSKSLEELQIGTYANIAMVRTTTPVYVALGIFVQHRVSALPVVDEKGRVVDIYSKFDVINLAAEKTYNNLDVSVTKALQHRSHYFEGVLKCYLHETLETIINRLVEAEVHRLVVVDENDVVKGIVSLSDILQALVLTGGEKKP
The assay is described as follows: Biochemical profiling of AMPK activators by AMPK221 (HTRF/TR-FRET assay, SAMS peptide, PP2A dephosphorylation protection). The note with it: for EC50: phosphorylated AMPK 221 (α2β2δ1), 11 point dilution, duplicate, 4-parameter fit; for Emax: phosphorylated AMPK 221, maximal activation. Here is the method:
as §1
The reaction was terminated after 60 minutes incubation at room temperature by the addition of 5 μL of stop and detection cocktail, which consisted of 1× Perkin Elmer Lance buffer (Perkin Elmer catalog number CR97-100), 40 mM EDTA (Thermo Fisher catalog number BP2482-100), and 2 nM Eu-anti-Acetyl CoA Carboxylase [pSer70] antibody (Perkin Elmer, TRF0208-M). Plates were spun at 1000 RPM, 10 seconds.
In general terms: Time-resolved FRET reads energy transfer from a long-lived donor to a nearby acceptor.

The structures appear in SMILES notation. Bounds are passed on as bounds.

T1 sequence (Q13131 whole entry): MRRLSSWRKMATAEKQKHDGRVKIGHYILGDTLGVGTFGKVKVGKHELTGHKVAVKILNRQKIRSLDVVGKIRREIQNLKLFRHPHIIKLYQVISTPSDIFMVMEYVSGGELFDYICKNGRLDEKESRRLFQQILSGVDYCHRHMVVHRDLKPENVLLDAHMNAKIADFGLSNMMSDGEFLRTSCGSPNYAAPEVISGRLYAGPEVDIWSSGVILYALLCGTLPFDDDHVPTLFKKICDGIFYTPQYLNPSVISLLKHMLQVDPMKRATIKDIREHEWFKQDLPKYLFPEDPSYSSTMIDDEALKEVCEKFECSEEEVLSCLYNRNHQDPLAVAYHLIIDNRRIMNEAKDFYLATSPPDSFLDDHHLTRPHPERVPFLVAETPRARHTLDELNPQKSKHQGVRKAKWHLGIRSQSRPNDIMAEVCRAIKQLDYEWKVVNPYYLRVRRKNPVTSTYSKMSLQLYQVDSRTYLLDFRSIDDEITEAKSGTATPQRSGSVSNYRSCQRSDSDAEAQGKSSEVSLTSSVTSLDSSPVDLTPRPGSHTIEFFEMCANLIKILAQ
T1 sequence (Q9Y478 whole entry): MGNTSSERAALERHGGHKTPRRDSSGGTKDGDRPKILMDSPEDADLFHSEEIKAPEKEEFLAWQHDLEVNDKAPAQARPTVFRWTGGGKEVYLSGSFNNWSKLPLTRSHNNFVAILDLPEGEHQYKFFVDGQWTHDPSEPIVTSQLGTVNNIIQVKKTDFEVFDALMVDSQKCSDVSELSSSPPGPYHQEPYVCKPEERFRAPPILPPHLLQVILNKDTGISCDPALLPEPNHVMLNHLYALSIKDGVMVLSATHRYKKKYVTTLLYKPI
T1 sequence (P54619 whole entry partner): as the sequence (P54619 whole entry partner) above

Broadly, the EC50 is the concentration at which the effect is half-maximal. High values mean a less potent agent, low ones a more potent agent. As usually defined, the Emax is the greatest response seen or fitted, relative to the assay's reference. In assay [1], `COc1ccc(C)c(-c2ccc(-c3cc4c(CCC(=O)O)n[nH]c4cc3Cl)cc2)c1O` [Example 62, 3-(6-chloro-5-(2′-hydroxy-3′-methoxy-6′-methyl-[1,1′-biphenyl]-4-yl)-1H-indazol-3-yl)propanoic acid] had an EC50 of 25 nM and an Emax of 72%. Moreover, in assay [2], the EC50 came out at 14 nM and the Emax amounted to 57%.
For `Cc1ccc(-c2ccc(-c3cc4c(CCC(=O)O)n[nH]c4cc3Cl)cc2)c(O)c1` [Example 34, 3-(6-chloro-5-(2′-hydroxy-4′-methyl-[1,1′-biphenyl]-4-yl)-1H-indazol-3-yl)propanoic acid] the same measures were 228 nM, 68%, 197 nM and 50%.
With `N#Cc1cc2[nH]nc(CCC(=O)O)c2cc1-c1ccc(-c2ccccc2O)cc1` [Example 35, 3-(6-cyano-5-(2′-hydroxy-[1,1′-biphenyl]-4-yl)-1H-indazol-3-yl)propanoic acid], in assay [1], the EC50 came to 137 nM and the Emax was found to be 67%. In assay [2], this compound gave an EC50 of 198 nM and a maximum response (Emax) of 47%.
In assay [1], `NC(=O)CSc1ccc(-c2ccc(-c3cc4c(CCC(=O)O)n[nH]c4cc3Cl)cc2)cc1` [Example 17, 3-(5-(4′-((2-amino-2-oxoethyl)thio)-[1,1′-biphenyl]-4-yl)-6-chloro-1H-indazol-3-yl)propanoic acid] displayed an EC50 of 34 nM and an Emax of 80%. In assay [2], this compound had an EC50 of 83 nM and an Emax of 49%.
As for `Cc1ccc(-c2ccc(-c3cc4c(CCC(=O)O)n[nH]c4cc3Cl)cc2)s1` [Example 56, 3-(6-chloro-5-(4-(5-methylthiophen-2-yl)phenyl)-1H-indazol-3-yl)propanoic acid], in assay [1], the EC50 worked out at 363 nM and the Emax turned out to be 48%. In assay [2], this compound gave an EC50 of 477 nM and an Emax of 18%.
In assay [1], `O=C(O)CCc1n[nH]c2cc(Cl)c(-c3ccc(-c4cccc(OC(F)F)c4O)cc3)cc12` [Example 57, 3-(6-chloro-5-(3′-(difluoromethoxy)-2′-hydroxy-[1,1′-biphenyl]-4-yl)-1H-indazol-3-yl)propanoic acid] yielded an EC50 of 103 nM and a maximal response (Emax) of 75%. In assay [2], this compound came in with an EC50 of 426 nM and a maximum response (Emax) of 63%.
For `CS(=O)(=O)Nc1ccc(-c2ccc(-c3cc4c(CCC(=O)O)n[nH]c4cc3Cl)cc2)cc1` [Example 32, 3-(6-chloro-5-(4′-(methylsulfonamido)-[1,1′-biphenyl]-4-yl)-1H-indazol-3-yl)propanoic acid], in assay [1], the EC50 came to 136 nM and the Emax was 71%. In assay [2], this compound showed an EC50 of 198 nM and an Emax of 41%.
As for `Cc1ccccc1-c1ccc(-c2cc3c(CCC(=O)O)n[nH]c3cc2Cl)cc1` [Example 48, 3-(6-chloro-5-(2′-methyl-[1,1′-biphenyl]-4-yl)-1H-indazol-3-yl)propanoic acid], in assay [1], a half-maximal response (EC50) required 365 nM and the Emax is 43%. Besides, in assay [2], a half-maximal response (EC50) required 367 nM and the Emax came out at 9%.
`Cc1ccc(F)c(O)c1-c1ccc(-c2cc3c(CCC(=O)O)n[nH]c3cc2Cl)cc1` [Example 20, 3-(6-chloro-5-(3′-fluoro-2′-hydroxy-6′-methyl-[1,1′-biphenyl]-4-yl)-1H-indazol-3-yl)propanoic acid]: the EC50 in assay [1] came out at 16 nM; in assay [2], 97 nM. Further, the Emax was determined as 82% in assay [1] and 61% in assay [2].
For `CN(C)C(=O)c1ccc(-c2ccc(-c3cc4c(CCC(=O)O)n[nH]c4cc3Cl)cc2)c(O)c1` [Example 12, 3-(6-chloro-5-(4′-(dimethylcarbamoyl)-2′-hydroxy-[1,1′-biphenyl]-4-yl)-1H-indazol-3-yl)propanoic acid] the same measures were 16 nM, 62 nM, 72% and 56%.
Take `CNC(=O)c1ccc(-c2ccc(-c3cc4c(CCC(=O)O)n[nH]c4cc3Cl)cc2)cc1` [Example 76, 3-(6-chloro-5-(4′-(methylcarbamoyl)-[1,1′-biphenyl]-4-yl)-1H-indazol-3-yl)propanoic acid]: in assay [1], a half-maximal effect (EC50) was put at 6 nM and the Emax was determined as 67%. For the same compound, in assay [2], a half-maximal response (EC50) required 13 nM and the Emax is 53%.
Regarding `O=C(O)CCc1n[nH]c2cc(Cl)c(-c3ccc(-c4c(O)cccc4Cl)cc3)cc12` [Example 46, 3-(6-chloro-5-(2′-chloro-6′-hydroxy-[1,1′-biphenyl]-4-yl)-1H-indazol-3-yl)propanoic acid], in assay [1], a half-maximal effect (EC50) was put at 20 nM and the Emax was determined as 82%. In addition, in assay [2], the EC50 is 267 nM and the Emax was 59%.
Regarding `Cc1cc(C)c(-c2ccc(-c3cc4c(CCC(=O)O)n[nH]c4cc3Cl)cc2)c(O)c1` [Example 18, 3-(6-chloro-5-(2′-hydroxy-4′,6′-dimethyl-[1,1′-biphenyl]-4-yl)-1H-indazol-3-yl)propanoic acid], in assay [1], the EC50 was 12 nM and the Emax is 84%. In assay [2], this compound displayed a half-maximal effective concentration (EC50) of 96 nM and an Emax of 64%.
In the case of `NC(=O)Cc1ccc(-c2ccc(-c3cc4c(CCC(=O)O)n[nH]c4cc3Cl)cc2)cc1` [Example 30, 3-(5-(4′-(2-amino-2-oxoethyl)-[1,1′-biphenyl]-4-yl)-6-chloro-1H-indazol-3-yl)propanoic acid], the EC50 in assay [1] was 36 nM; in assay [2], 173 nM. The figures for the Emax in assay [1] and in assay [2] were 80% and 65%, respectively.
As to `CNC(=O)c1ccc(-c2ccc(-c3cc4c(CCC(=O)O)n[nH]c4cc3Cl)cc2)c(O)c1` [Example 23, 3-(6-chloro-5-(2′-hydroxy-4′-(methylcarbamoyl)-[1,1′-biphenyl]-4-yl)-1H-indazol-3-yl)propanoic acid], the EC50 in assay [1] turned out to be 2 nM; in assay [2] it was 5 nM. Besides, the values for the Emax in assay [1] and in assay [2] were 71% and 56%, respectively.
Take `O=C(O)CCc1n[nH]c2cc(Cl)c(-c3ccc(-c4ccccc4OC4OC(C(=O)O)C(O)C(O)C4O)cc3)cc12` (centres unmarked) [Example 80, 6-((4′-(3-(2-carboxyethyl)-6-chloro-1H-indazol-5-yl)-[1,1′-biphenyl]-2-yl)oxy)-3,4,5-trihydroxytetrahydro-2H-pyran-2-carboxylic acid]: the EC50 in assay [1] and in assay [2] was more than 21100 nM each time.
Regarding `O=C(O)CCc1n[nH]c2cc(Cl)c(-c3ccc(-c4csc(CO)c4)cc3)cc12` [Example 58, 3-(6-chloro-5-(4-(5-(hydroxymethyl)thiophen-3-yl)phenyl)-1H-indazol-3-yl)propanoic acid], the concentration giving a half-maximal response (EC50) in assay [1] came to 215 nM; in assay [2], 573 nM. Also, the Emax turned out to be 76% in assay [1] and 57% in assay [2].
Turning to `COCc1ccc(-c2ccc(-c3cc4c(CCC(=O)O)n[nH]c4cc3Cl)cc2)c(O)c1` [Example 10, 3-(6-chloro-5-(2′-hydroxy-4′-(methoxymethyl)-[1,1′-biphenyl]-4-yl)-1H-indazol-3-yl)propanoic acid], in assay [1], the EC50 turned out to be 29 nM and the maximal response (Emax) turned out to be 76%.
